Experiments:
[1] = mouse, in vivo, iv
Description: Mouse anaesthesia was induced with 3-4% isoflurane/0.3% oxygen and maintained by i.p. injection of ketamine/xylazine throughout the experiment. Mice received 20 U of heparin dissolved in 0.9% (w/v) NaCl by i.p. injection to prevent ischemia of the liver during the course of imaging. To visualize hepatocyte nuclei, Hoechst 33258 dissolved in 0.9% (w/v) NaCl was administered retro-orbitally at a dose of 2 mg/kg and in a total volume of 50 μl. To expose the liver for imaging, the abdominal fur was removed using an electric shaver and a small transversal incision of 1 cm was made at the height of the sternum to expose the left lateral liver lobe using a surgical scissor and cauterizer. The mouse was positioned on the stage of an IX81 inverted confocal microscope equipped with a Fluoview 1000 scanning head (Olympus America) and a heat-adjustable UPLSAPO30X, 30×1.05 NA silicon oil objective (Olympus). The objective was heated to 37° C. To avoid compression of the liver lobe and to stabilize the tissue, the stage was designed with a small hole in the center into which the left lateral lobe was carefully placed. The residual volume of the hole was filled with a water based and transparent 1% carbomer gel (0.3 M Sorbitol, 1% (w/v) Carbomer 940, polymerized by addition of triethanolamine and adjusted to pH 7) to immobilize the organ and prevent the organ from drying out. The bottom of the hole was designed with a coverslide through which the organ was accessible for imaging. The animal body temperature was kept at 37° C. using a red lamp. Prior to imaging start, 18 mg/kg of 70 kDa Rhodaminedextran or 20 μl of Qtracker 655 vascular label dissolved in 0.9% (w/v) NaCl was injected retro-orbitally to identify the lobule orientation from the vascular flow pattern. To monitor the flux of CFDA in the liver, CFDA, dissolved in dimethyl sulfoxide (DMSO), was injected retro-orbitally at a dose of 0.2 mg/kg in a total volume of 50 μl. CFDA injection was performed slowly (approx. 30 sec) to avoid hydrodynamic effects and performed at 1 min after image acquisition start. […]

[2] = according to Breeuwer et al., 1995, considering a plasma membrane thickness of 4 nm; cited from earlier work
[3] = test system: bile canaliculi (BC) network; test: BC network geometry (BC radius) from 3D reconstruction of CD13-stained fixed liver tissue sections; type: in vivo, mouse
Description: (§1) As controls, mice were administered 0.9% saline.
All steps were performed at room temperature.
Fixed tissue was imaged with a Zeiss laser scanning microscope 780 NLO using a 63×1.3 numerical aperture (NA) glycerol immersion objective (Zeiss), a Chameleon Ti-Sapphire 2-photon laser (780 nm), 488 and 561 laser lines and Gallium arsenide phosphide (GaAsp) detectors.
3D reconstructions of the BC network were performed on high-resolution IF image stacks of fixed liver tissue stained for the apical marker CD13 (voxel size: 0.28×0.28×0.3 μm, 70-80 μm in depth). A tile of 2×1 image stacks was stitched to cover an entire CV-PV axis. Images were processed, analyzed and reconstructed using the software MotionTracking as described in (Morales-Navarrete et al., 2015). In brief, images were segmented using a local thresholding algorithm (maximum entropy), segmented objects were corrected for artefacts using standard morphological operations (opening/closing) and the triangulation mesh of the segmented surfaces was generated by the cube marching algorithm. The active mesh was tuned to align the triangle mesh vertexes to the maximum gradient of fluorescence intensity in the original image. A representation of the skeletonized image was generated using a 3D graph describing the geometrical and topological features of the BC network. For the spatial analysis of BC radius, porosity and network density, the CV-PV axis was computationally divided into 20 equidistant zones based on the distance dof each position x from the CV (dCV) and PV (dPV):
Then, the average radius and porosity was determined per zone. For the radius, the minimal distance of each node of the central line of the BC network was quantified in the xy-plane. For the BC network density, the network length per tissue volume was calculated. For the tissue porosity, […]

[4] = test system: phosphorylated myosin light chain (pMLC); test: Western blot of phosphorylated myosin light chain in liver tissue of treated mice; type: in vivo; conditions: 20 mg/kg Fasudil for 1.5 h, mouse liver
Description: As controls, mice were administered 0.9% saline. […] Cell debris were removed by centrifugation for 10 min at 12 000×g at 4° C. and protein was denatured at 95° C. in presence of 100 mM dithiothreitol (DTT). A total of 10 μg protein was separated by sodium dodecyl sulfate polyacrylamide gel electrophoresis, and transferred onto a nitrocellulose membrane. Membranes were blocked and incubated with primary antibodies against glyceraldehyde 3-phosphate dehydrogenase (GAPDH, 1:2000) or phospho-myosin light chain (pMLC, 1:500) and HRP-conjugated secondary antibodies (1:10000) in 5% dry-milk, 10 mM Tris-HCl pH 8.0, 200 mM NaCl, 0.1% Tween20. Protein was detected using the enhanced chemiluminescence (ECL) detection kit (GE Healthcare, Buckinghamshire, UK) and chemiluminescence films (GE Healthcare, Buckinghamshire, UK) according to manufacturer's instructions. Plasma membrane contractility is determined by the cortical acto-myosin system ([…] et al., 2016; Tsukada and Phillips, 1993). […] Consequently, inhibition of acto-myosin contractility should affect biliary fluid dynamics. […] We next analyzed the BC network geometry on fixed liver tissue sections and found a dilation of BC in Fasudil-treated mice (FIG. 5B).

[5] = test system: bile flow in the BC network; test: Bile velocity and apical CF transport by intravital microscopy (IVM) of CF(DA) transport with 3-compartment model; type: in vivo, mouse
Description: as §1
The objective was heated to 37° C.
Quantification of the CF intensity in the hepatocyte cytoplasm and BC from IVM movies was performed using the image analysis software MotionTracking. Following correction for shift, IVM movies contained 16-21 frames per stack, covering 15-20 μm in z. To avoid liver damage from photo-toxicity, IVM movies were acquired with minimum laser intensities resulting in low signal-to-noise ratio. […] Therefore, we used the modified Mean-Shift algorithm to separate the CF fluorescence from the background. The result of the background/foreground discrimination was checked manually. The BC were detected in three steps. First, the image was convolved with Laplacian of Gaussian. Second, pixels with an intensity >2 standard deviations of the local noise were defined as potential BC. The local noise was determined from the local intensity minimums in at least one of 4 discrete directions. Third, along the line of the local maximum intensity direction of a BC, pixels that co-localized with sharp intensity transitions between the cytoplasm and sinusoids were excluded from the BC compartment. For all compartments (cytoplasm, BC and background), the mean intensity was calculated. To avoid mixing of compartments from light scattering of bright objects (BC to cytoplasm and cytoplasm to background), the area within the radius of 2 pixels from the object border was excluded from the calculation.
The transport of CF(DA) from the blood into and through the biliary network was described in a mathematical model that considers 3 hepatic compartments: the blood (s), hepatocytes cytoplasm (c) and bile canaliculi (b) (see FIG. 2F). Dye propagation through these three compartments was modelled for three spatially distinct zones within the liver lobule: The CV, MD and PV zone as defined in FIG. 2C. The different zone geometries of the kite-shaped CV-PV axis were accounted for by introducing respective geometry factors. The model considers that only a fraction of the injected CFDA is delivered to the liver, whereas the rest is cleared by other tissues at rate κclear. The injection of CFDA into the blood circulation is described by Pulse(t). It is defined by the time point of injection start (τ1) and the injection duration (τ2) assuming that CFDA is injected with constant rate in time t>τ1 and <τ1+τ2. Both τ1 and τ2 were fitted by the model with boundary intervals 40-80 sec (τ1) and 20-60 sec (τ2). In the liver, the model considers that CFDA is taken up from the blood with a permeability coefficient Perm=3 sec^−1 (according to (Breeuwer et al., 1995), considering a mammalian plasma membrane thickness of 4 nm), converted into CF by cytoplasmic esterases with cleavage rate κcleav and secreted by apical transporters with transporter activity κpump. To account for the spatial heterogeneity of esterase and transporter levels within the CV-PV axis, the amounts of both esterases (qi) and apical transporters (q1i) were determined for each zone (i=cv, md, pv). The model further considers passive back flux of CF from the BC into the hepatocyte cytoplasm at rate κli. The bile canaliculi compartment of the three zones is connected, occurs unidirectional and sequential from the CV to the MD with transport rate
Bile flow velocity vi at the interfaces of the lobule zones was estimated from the volume flux rates
considering the size of the zone volumes V and zone boundaries Ai (i=cv, md, pv) as well as a CV-PV axis distance L of 229 μm: […]

[6] = from the literature; cited from earlier work
[7] = APAP 150 mg/kg i.p., 2 h, IVM of CF(DA) transport

O=C(O)c1ccc2c(c1)C1(OC2=O)c2ccc(O)cc2Oc2cc(O)ccc21 [CF, 6-carboxyfluorescein]
time until cleared from the system [1]: ~40 min | time until visible in the BC network [1]: 3 to 5 min

CC(=O)Oc1ccc2c(c1)Oc1cc(OC(C)=O)ccc1C21OC(=O)c2ccc(C(=O)O)cc21 [CFDA, 6-carboxyfluorecein-diacetate]
time until detectable in the hepatocyte cytoplasm [1]: within seconds | permeability coefficient Perm for uptake from the blood [2]: 3 s⁻¹

O=S(=O)(c1cccc2cnccc12)N1CCCNCC1 [Fasudil]
BC radius increase as compared to control mice, MD zone ([3]; Fasudil 20 mg/kg i.p., 1.5 h, MD zone, pvalue<0.0001): up to 12% | BC radius increase as compared to control mice, PV zone ([3]; Fasudil 20 mg/kg i.p., 1.5 h, PV zone, pvalue<0.001): ≤ 7% | extrapolated BC radius at x=L, at(L) ([3]; Fasudil-treated mice, apparent radius at portal outlet): 1.422 μm | phosphorylated myosin light chain (pMLC) protein levels [4]: reduction | reduction of bile velocity across the CV-PV axis as compared to control mice ([5]; Fasudil 20 mg/kg i.p., 1.5 h, IVM of CF(DA) transport): 50-58% | apical CF transport ([5]; Fasudil-treated mice, IVM): reduction | apical secretion fluxes summed over the entire CV-PV axis, Jt ([5]; Fasudil-treated, t=500 sec): 0.0390 arbitrary intensity units per time | apical secretion flux of CF, CV zone ([5]; Fasudil-treated, t=500 sec, CV zone): 0.0019 arbitrary intensity units per time | apical secretion flux of CF, MD zone ([5]; Fasudil-treated, t=500 sec, MD zone): 0.0312 arbitrary intensity units per time | apical secretion flux of CF, PV zone ([5]; Fasudil-treated, t=500 sec, PV zone): 0.0059 arbitrary intensity units per time

CC(=O)Nc1ccc(O)cc1 [APAP, acetaminophen]
dilation of BC, CV zone ([3]; APAP 150 mg/kg i.p., 2 h, immersion fixed, CV zone, pvalue<0.01): up to 20% | dilation of BC, MD zone ([3]; APAP 150 mg/kg i.p., 2 h, immersion fixed, MD zone, pvalue<0.0001): ≤ 18% | bile velocity in the peri-portal zone [5, 7]: remained almost unaffected | measured increase in bile velocity in the CV and MD zones [5, 7]: 1.4-1.6 fold | effects on osmolite secretion ([5]; APAP treatment): marginal | maximum reported sub-toxic dose [6]: 150 mg/kg

From patent publication US20200054271A1, “COMPUTER-BASED LIVER MODEL” (priority 2017, published 2020)
